{"source": "patent US11434227B2", "about": "“Broad spectrum antibacterial activity of novel bisbenzimidazoles targeting topoisomerase IA and the synergistic composition of bisbenzimidazole with efflux pump inhibitors against pathogenic bacteria” (Jawaharlal Nehru University (JNU), priority 2016, dated 2022)", "key": {"[1]": {"system": "E. coli K12 mutant ΔemrA", "assay": "Susceptibility of E. coli K12 and mutants (MIC90)", "conditions": "Escherichia coli", "method": "(§1) MICs were determined by the broth microdilution method according to CLSI methods (Clinical and Laboratory Standards Institute, 2005). Inoculants were incubated at 37° C. on cation adjusted Mueller Hinton (MH) Broth for 18 to 24 h. Compound were dissolved in media to 10 doubling dilutions from 128 to 0.125 μg/mL. All the bacterial strains were grown in 96 well plate with low evaporation lid (Falcon, Becton Dickinson) in presence of derivatives of benzimidazoles at 0.125, 0.25, 0.5, 1, 2, 4, 8, 16, 32, 64, 128, 256 μg/mL concentrations. […] Plates were read by Tecan Micro-plate Reader at 600 nm."}, "[2]": {"system": "E. coli K12 mutant ΔompC", "assay": "Susceptibility of E. coli K12 and mutants (MIC90)", "conditions": "Escherichia coli", "method": "as §1"}, "[3]": {"system": "E. coli K12", "assay": "Susceptibility of E. coli K12 and mutants (MIC90)", "conditions": "Escherichia coli", "method": "as §1"}, "[4]": {"system": "M. tuberculosis", "assay": "Effect on virulent and avirulent strains of M. tuberculosis", "assay_type": "cell-based, Mycobacterium tuberculosis"}, "[5]": {"system": "isogenic efflux deleted strains", "assay": "Susceptibility of isogenic efflux deleted strains versus wild type", "assay_type": "cell-based, Escherichia coli", "conditions": "in comparison to wild type strains"}, "[6]": {"system": "Enterococcus sp. (1365)", "assay": "Susceptibility (MIC50/MIC90), broth microdilution", "method": "as §1"}, "[7]": {"system": "E. coli K12 mutant ΔompF", "assay": "Susceptibility of E. coli K12 and mutants (MIC90)", "conditions": "Escherichia coli", "method": "as §1"}, "[8]": {"system": "Escherichia coli (ATCC 25922)", "assay": "Susceptibility (MIC, PAE, MBC), broth microdilution", "method": "as §1"}, "[9]": {"system": "Salmonella typhimurium (MTCC 1251)", "assay": "Susceptibility (MIC50/MIC90), broth microdilution", "conditions": "Salmonella enterica", "method": "as §1"}, "[10]": {"system": "Enterococcus sp.(1150)", "assay": "Susceptibility (MIC50/MIC90), broth microdilution", "method": "as §1"}, "[11]": {"system": "Klebsiella planticola (K1164)", "assay": "Susceptibility (MIC50/MIC90), broth microdilution", "method": "as §1"}, "[12]": {"system": "Acinetobacter baumannii (MTCC1920)", "assay": "Susceptibility (MIC50/MIC90), broth microdilution", "method": "as §1"}, "[13]": {"system": "S. aureus 1016", "assay": "Neutropenic thigh infection model", "assay_type": "in vivo, Balb/c mice", "description": "Craig, was used in this study."}, "[14]": {"system": "Pseudomonas aeruginosa (Ps162)", "assay": "Susceptibility (MIC50/MIC90), broth microdilution", "method": "as §1"}, "[15]": {"system": "Escherichia coli 385", "assay": "Susceptibility (MIC50/MIC90), broth microdilution", "method": "as §1"}, "[16]": {"system": "Enterococcus sp. (2105)", "assay": "Susceptibility (MIC50/MIC90), broth microdilution", "method": "as §1"}, "[17]": {"system": "Pseudomonas aeruginosa (MTCC1688)", "assay": "Susceptibility (MIC50/MIC90), broth microdilution", "method": "as §1"}, "[18]": {"system": "Klebsiella planticola (K589)", "assay": "Susceptibility (MIC50/MIC90), broth microdilution", "method": "as §1"}, "[19]": {"system": "Enterococcus sp. (1367)", "assay": "Susceptibility (MIC50/MIC90), broth microdilution", "method": "as §1"}, "[20]": {"system": "E. coli K12 mutant ΔacrA", "assay": "Susceptibility of E. coli K12 and mutants (MIC90)", "conditions": "Escherichia coli", "method": "as §1"}, "[21]": {"system": "E. coli K12 mutant ΔTopIA", "assay": "Susceptibility of E. coli K12 and mutants (MIC90)", "conditions": "Escherichia coli", "method": "as §1"}, "[22]": {"system": "Acinetobacter baumannii (AB387)", "assay": "Susceptibility (MIC50/MIC90), broth microdilution", "method": "as §1"}, "[23]": {"system": "E. coli K12 mutant ΔtolC", "assay": "Susceptibility of E. coli K12 and mutants (MIC90)", "conditions": "Escherichia coli", "method": "as §1"}, "[24]": {"system": "Klebsiella planticola (MTCC 2272)", "assay": "Susceptibility (MIC50/MIC90), broth microdilution", "conditions": "MTCC2272", "method": "as §1"}, "[25]": {"system": "Staphylococcus sp. (982)", "assay": "Susceptibility (MIC50/MIC90), broth microdilution", "method": "as §1"}, "[26]": {"system": "E. coli K12 mutant ΔTopIB", "assay": "Susceptibility of E. coli K12 and mutants (MIC90)", "conditions": "Escherichia coli", "method": "as §1"}, "[27]": {"system": "Enterococcus sp. (1121)", "assay": "Susceptibility (MIC50/MIC90), broth microdilution", "method": "as §1"}, "[28]": {"system": "Salmonella typhimurium (St412)", "assay": "Susceptibility (MIC50/MIC90), broth microdilution", "conditions": "Salmonella enterica", "method": "as §1"}, "[29]": {"system": "Escherichia coli 392", "assay": "Susceptibility (MIC50/MIC90), broth microdilution", "method": "as §1"}, "[30]": {"system": "Klebsiella planticola (K235)", "assay": "Susceptibility (MIC50/MIC90), broth microdilution", "method": "as §1"}, "[31]": {"system": "Shigella flexineri (MTCC1457)", "assay": "Susceptibility (MIC50/MIC90), broth microdilution", "assay_type": "cell-based"}, "[32]": {"system": "Enterococcus sp. (432)", "assay": "Susceptibility (MIC50/MIC90), broth microdilution", "method": "as §1"}, "[33]": {"system": "Staphylococcus sp. (1016)", "assay": "Susceptibility (MIC50/MIC90), broth microdilution", "method": "as §1"}, "[34]": {"system": "Staphylococcus sp. (976)", "assay": "Susceptibility (MIC50/MIC90), broth microdilution", "method": "as §1"}, "[35]": {"system": "Mycobacterium tuberculosis H37Ra (avirulent)", "assay": "Susceptibility of Mycobacterium tuberculosis strains (MIC90)", "assay_type": "cell-based"}, "[36]": {"system": "E. coli ATCC 25922", "assay": "Neutropenic thigh infection model", "method": "The neutropenic mice thigh infection model, fully described by. Craig, was used in this study. Female Balb/c mice (6 mice per dosing group) weighing 20-25 g were rendered neutropenic with 2 intraperitoneal injections of cyclophosphamide (150 mg/kg of body weight 4 days prior to bacterial inoculation and 100 mg/kg 1 day before inoculation) 2 h prior to bacterial inoculation. […] Bacteria were injected into the right thigh of each mouse at time zero. […] Neutropenia was defined as an absolute neutrophil count of 500 polymorphonuclear leukocytes/cm^3 of blood. The bacterial suspension was diluted to a concentration of 10^6 CFU/mL with normal saline. Then, 0.1 mL of the bacterial suspension was injected into each posterior thigh muscle 2 h after the second dose of cyclophosphamide was administered. […] Twenty-four hours after drug treatment was begun, the mice were humanely sacrificed. Right thigh muscles from each mouse were aseptically collected, homogenized and serially diluted 1:10 in phosphate buffer saline, and processed for quantitative cultures."}, "[37]": {"system": "Mycobacterium tuberculosis H37Rv (virulent)", "assay": "Susceptibility of Mycobacterium tuberculosis strains (MIC90)", "assay_type": "cell-based"}, "[38]": {"system": "Acinetobacter baumannii (AB312)", "assay": "Susceptibility (MIC50/MIC90), broth microdilution", "method": "as §1"}, "[39]": {"system": "Pseudomonas aeruginosa (MTCC 366)", "assay": "Susceptibility (MIC50/MIC90), broth microdilution", "conditions": "MTCC366", "method": "as §1"}, "[40]": {"conditions": "Neutropenic thigh, ATCC 25922, single i.v. bolus, 24 h"}}, "note": "Like-named read-outs stand apart in the source and are kept apart here.", "data": [{"compound": "CCCCN1CCN(c2ccc3nc(-c4ccc5[nH]c(-c6ccc(OC)c(OC)c6)nc5c4)[nH]c3c2)CC1", "note": "[SP12a, 5-(4-butylpiperazin-1-yl)-2′-(3,4-dimethoxyphenyl)-1H,1′H-2,5′-bibenzo[d]imidazole]", "values": [{"measurement": "MIC90", "setting": "[1]", "result": 7.9, "unit": "mg/L"}, {"measurement": "MIC90", "setting": "[2]", "result": 6.7, "unit": "mg/L"}, {"measurement": "MIC90", "setting": "[3]", "result": 16, "unit": "mg/L"}, {"measurement": "effect on M. tuberculosis", "setting": "[4]", "result": "effective against M. tuberculosis"}, {"measurement": "sensitisation of efflux deleted strains", "setting": "[5]", "result": "more sensitised"}, {"measurement": "MIC50", "setting": "[6]", "result": "< 0.25", "unit": "mg/L"}, {"measurement": "MIC90", "setting": "[6]", "result": "< 0.25", "unit": "mg/L"}, {"measurement": "MIC90", "setting": "[7]", "result": 6.5, "unit": "mg/L"}, {"measurement": "MIC90", "setting": "[8]; ATCC 25922, Table 6", "result": "7.3 ± 0.024", "unit": "mg/L"}, {"measurement": "MIC50", "setting": "[8]; Escherichia coli, ATCC25922", "result": 3, "unit": "mg/L"}, {"measurement": "MIC90", "setting": "[8]; Escherichia coli, ATCC25922", "result": 7.3, "unit": "mg/L"}, {"measurement": "MIC50", "setting": "[9]", "result": "< 0.25", "unit": "mg/L"}, {"measurement": "MIC90", "setting": "[9]", "result": 0.25, "unit": "mg/L"}, {"measurement": "MIC50", "setting": "[10]", "result": "< 0.25", "unit": "mg/L"}, {"measurement": "MIC90", "setting": "[10]", "result": "< 0.25", "unit": "mg/L"}, {"measurement": "MIC50", "setting": "[11]", "result": "> 128", "unit": "mg/L"}, {"measurement": "MIC90", "setting": "[11]", "result": 128, "unit": "mg/L"}, {"measurement": "MIC50", "setting": "[12]", "result": 128, "unit": "mg/L"}, {"measurement": "MIC90", "setting": "[12]", "result": 128, "unit": "mg/L"}, {"measurement": "Dose at 1.7 log reduction", "setting": "[13]; Neutropenic thigh, S. aureus 1016, single i.v. bolus, 24 h", "result": 4, "unit": "mg/kg bw/day"}, {"measurement": "bacterial load reduction", "setting": "[13]; balb/c mice neutropenia thigh model, Gram positive S1016", "result": "significant bacterial load reduction"}, {"measurement": "MIC50", "setting": "[14]", "result": 5.22, "unit": "mg/L"}, {"measurement": "MIC90", "setting": "[14]", "result": "> 128", "unit": "mg/L"}, {"measurement": "MIC50", "setting": "[15]", "result": 3.9, "unit": "mg/L"}, {"measurement": "MIC90", "setting": "[15]", "result": 6.5, "unit": "mg/L"}, {"measurement": "MIC50", "setting": "[16]", "result": 4.32, "unit": "mg/L"}, {"measurement": "MIC90", "setting": "[16]", "result": 12.2, "unit": "mg/L"}, {"measurement": "MIC50", "setting": "[17]", "result": 128, "unit": "mg/L"}, {"measurement": "MIC90", "setting": "[17]", "result": 128, "unit": "mg/L"}, {"measurement": "MIC50", "setting": "[18]", "result": 10.3, "unit": "mg/L"}, {"measurement": "MIC90", "setting": "[18]", "result": 29.4, "unit": "mg/L"}, {"measurement": "MIC50", "setting": "[19]", "result": "< 0.25", "unit": "mg/L"}, {"measurement": "MIC90", "setting": "[19]", "result": "< 0.25", "unit": "mg/L"}, {"measurement": "MIC90", "setting": "[20]", "result": 3.4, "unit": "mg/L"}, {"measurement": "MIC90", "setting": "[21]", "result": 3.9, "unit": "mg/L"}, {"measurement": "MIC50", "setting": "[22]", "result": 3.6, "unit": "mg/L"}, {"measurement": "MIC90", "setting": "[22]", "result": 10.8, "unit": "mg/L"}, {"measurement": "MIC90", "setting": "[23]", "result": 0.7, "unit": "mg/L"}, {"measurement": "MIC50", "setting": "[24]", "result": 128, "unit": "mg/L"}, {"measurement": "MIC90", "setting": "[24]", "result": 128, "unit": "mg/L"}, {"measurement": "MIC50", "setting": "[25]", "result": 0.5, "unit": "mg/L"}, {"measurement": "MIC90", "setting": "[25]", "result": 1, "unit": "mg/L"}, {"measurement": "MIC90", "setting": "[26]", "result": 12.8, "unit": "mg/L"}, {"measurement": "MIC50", "setting": "[27]", "result": "< 0.25", "unit": "mg/L"}, {"measurement": "MIC90", "setting": "[27]", "result": 0.88, "unit": "mg/L"}, {"measurement": "MIC50", "setting": "[28]", "result": "< 0.25", "unit": "mg/L"}, {"measurement": "MIC90", "setting": "[28]", "result": 0.25, "unit": "mg/L"}, {"measurement": "MIC50", "setting": "[29]", "result": 1.5, "unit": "mg/L"}, {"measurement": "MIC90", "setting": "[29]", "result": 13.7, "unit": "mg/L"}, {"measurement": "MIC50", "setting": "[30]", "result": 3.1, "unit": "mg/L"}, {"measurement": "MIC90", "setting": "[30]", "result": 25.9, "unit": "mg/L"}, {"measurement": "MIC50", "setting": "[31]", "result": 0.24, "unit": "mg/L"}, {"measurement": "MIC90", "setting": "[31]", "result": 0.8, "unit": "mg/L"}, {"measurement": "MIC50", "setting": "[32]", "result": "> 128", "unit": "mg/L"}, {"measurement": "MIC90", "setting": "[32]", "result": "> 128", "unit": "mg/L"}, {"measurement": "MIC90", "setting": "[33]", "result": "5.7 ± 0.046", "unit": "mg/L"}, {"measurement": "MIC50", "setting": "[33]; Staphylococcus", "result": 1.2, "unit": "mg/L"}, {"measurement": "MIC90", "setting": "[33]; Staphylococcus", "result": 5.7, "unit": "mg/L"}, {"measurement": "MIC50", "setting": "[34]", "result": "< 0.25", "unit": "mg/L"}, {"measurement": "MIC90", "setting": "[34]", "result": 0.4, "unit": "mg/L"}, {"measurement": "MIC90", "setting": "[35]", "result": 7.3, "unit": "mg/L"}, {"measurement": "Dose at 0.8 log reduction", "setting": "[36]; [40]", "result": 2, "unit": "mg/kg bw/day"}, {"measurement": "Dose at 3.4 log reduction", "setting": "[36]; [40]", "result": 4, "unit": "mg/kg bw/day"}, {"measurement": "bacterial load reduction", "setting": "[36]; balb/c mice neutropenia thigh model, gram negative ATCC25922", "result": "significant bacterial load reduction"}, {"measurement": "MIC90", "setting": "[37]", "result": 14.6, "unit": "mg/L"}, {"measurement": "MIC50", "setting": "[38]", "result": 4.6, "unit": "mg/L"}, {"measurement": "MIC90", "setting": "[38]", "result": 12.9, "unit": "mg/L"}, {"measurement": "MIC50", "setting": "[39]", "result": "< 0.25", "unit": "mg/L"}, {"measurement": "MIC90", "setting": "[39]", "result": "< 0.25", "unit": "mg/L"}]}]}
